The source of these data is patent publication US9656955B2, “Pyrrolidine derivatives, pharmaceutical compositions containing them, and their use in therapy” (AbbVie Deutschland GmbH & Co. KG, priority 2013, dated 2017).

In this test the target is human GlyT1c transporter (Homo sapiens (Human), UniProt P48067). The experiment in a line: Radioligand binding assays using recombinant CHO cell membranes expressing human GlyT1. The note with it: radioligand binding, human GlyT1c transporter-expressing CHO cell membranes.
Sequence of human GlyT1c transporter (P48067 whole entry): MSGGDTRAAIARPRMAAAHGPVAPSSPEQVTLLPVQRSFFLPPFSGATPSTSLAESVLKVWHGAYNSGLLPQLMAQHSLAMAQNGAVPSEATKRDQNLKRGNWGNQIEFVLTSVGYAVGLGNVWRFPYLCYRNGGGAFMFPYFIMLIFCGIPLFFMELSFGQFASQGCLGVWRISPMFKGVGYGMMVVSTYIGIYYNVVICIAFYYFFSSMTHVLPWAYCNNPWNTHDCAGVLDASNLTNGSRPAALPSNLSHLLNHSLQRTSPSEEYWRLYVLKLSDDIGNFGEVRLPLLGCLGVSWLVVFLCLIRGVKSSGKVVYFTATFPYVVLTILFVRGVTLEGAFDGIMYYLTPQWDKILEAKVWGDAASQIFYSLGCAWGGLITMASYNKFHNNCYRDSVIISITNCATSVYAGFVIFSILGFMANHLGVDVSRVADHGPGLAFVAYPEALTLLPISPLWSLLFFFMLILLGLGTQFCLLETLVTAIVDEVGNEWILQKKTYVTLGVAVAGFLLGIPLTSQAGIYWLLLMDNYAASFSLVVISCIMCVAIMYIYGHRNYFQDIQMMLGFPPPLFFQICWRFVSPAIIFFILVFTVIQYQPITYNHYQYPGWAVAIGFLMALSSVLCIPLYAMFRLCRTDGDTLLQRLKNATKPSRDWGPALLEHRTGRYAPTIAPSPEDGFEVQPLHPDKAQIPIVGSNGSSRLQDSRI
Turning to `Cn1cnc(S(=O)(=O)N2C[C@H](Nc3cc(OC4CCC4)ncn3)[C@@H](c3ccc(F)cc3)C2)c1` [Example 719, 6-(cyclobutyloxy)-N-{(3R,4S)-4-(4-fluorophenyl)-1-[(1-methyl-1H-imidazol-4-yl)sulfonyl]pyrrolidin-3-yl}pyrimidin-4-amine], the inhibitory constant (Ki) (usually a measure of affinity in units of concentration, obtained from inhibition or displacement) was at most 100 nM.

In the case of `Cc1ccc(-c2cc(N[C@H]3CN(S(=O)(=O)c4cn(C)cn4)C[C@@H]3c3ccc(F)cc3)ncn2)cc1` [Example 725, N-{(3R,4S)-4-(4-fluorophenyl)-1-[(1-methyl-1H-imidazol-4-yl)sulfonyl]pyrrolidin-3-yl}-6-(4-methylphenyl)pyrimidin-4-amine], the Ki is at most 10 nM.

Turning to `Cn1cnc(S(=O)(=O)N2C[C@H](Nc3cc(-c4ccc(F)cc4)ncn3)[C@@H](c3ccc(F)cc3)C2)c1` [Example 728, 6-(4-fluorophenyl)-N-{(3R,4S)-4-(4-fluorophenyl)-1-[(1-methyl-1H-imidazol-4-yl)sulfonyl]pyrrolidin-3-yl}pyrimidin-4-amine], the inhibition constant (Ki) was at most 10 nM.

As to `Cn1cnc(S(=O)(=O)N2C[C@H](Nc3cc(-c4ccc(Cl)cc4)ncn3)[C@@H](c3ccc(F)cc3)C2)c1` [Example 730, 6-(4-chlorophenyl)-N-{(3R,4S)-4-(4-fluorophenyl)-1-[(1-methyl-1H-imidazol-4-yl)sulfonyl]pyrrolidin-3-yl}pyrimidin-4-amine], the Ki is at most 10 nM.

As to `Cc1ccc(CO[C@H]2CN(S(=O)(=O)c3cn(C)cn3)C[C@@H]2c2ccc(F)cc2)cc1` [Example 731, 4-({(3S,4R)-3-(4-fluorophenyl)-4-[(4-methylbenzyl)oxy]pyrrolidin-1-yl}sulfonyl)-1-methyl-1H-imidazole], the Ki is at most 100 nM.

As for `Cn1cnc(S(=O)(=O)N2C[C@H](Nc3ccc(F)c(-c4cccnc4)c3)[C@@H](c3ccc(F)cc3)C2)c1` [Example 745, (3R,4S)-4-(4-fluorophenyl)-N-[4-fluoro-3-(pyridin-3-yl)phenyl]-1-[(1-methyl-1H-imidazol-4-yl)sulfonyl]pyrrolidin-3-amine], the Ki is at most 10 nM.

Take `Cc1cc(N[C@H]2CN(S(=O)(=O)c3cn(C)cn3)C[C@@H]2c2ccc(F)cc2)ncc1F` [Example 748, 5-fluoro-N-{(3R,4S)-4-(4-fluorophenyl)-1-[(1-methyl-1H-imidazol-4-yl)sulfonyl]pyrrolidin-3-yl}-4-methylpyridin-2-amine]: the Ki was at most 10 nM.

With `Cn1cnc(S(=O)(=O)N2C[C@H](NC(=O)CCC(C)(F)F)[C@@H](c3ccc(F)cc3)C2)c1` [Example 754, 4,4-difluoro-N-{(3R,4S)-4-(4-fluorophenyl)-1-[(1-methyl-1H-imidazol-4-yl)sulfonyl]pyrrolidin-3-yl}pentanamide], the Ki is at most 10000 nM.

As for `Cc1ncc(S(=O)(=O)N2C[C@H](Nc3ccc(F)c(F)c3)[C@@H](c3ccc(F)cc3)C2)n1C` [Example 757, (3R,4S)—N-(3,4-difluorophenyl)-1-[(1,2-dimethyl-1H-imidazol-5-yl)sulfonyl]-4-(4-fluorophenyl)pyrrolidin-3-amine], the Ki was at most 10000 nM.

For the compound `Cn1cnc(S(=O)(=O)N2C[C@H](Nc3cc(Cl)ccn3)[C@@H](c3ccc(F)cc3)C2)c1` [Example 759, 4-chloro-N-{(3R,4S)-4-(4-fluorophenyl)-1-[(1-methyl-1H-imidazol-4-yl)sulfonyl]pyrrolidin-3-yl}pyridin-2-amine], the inhibitory constant (Ki) is at most 10 nM.

Take `Cn1cnc(S(=O)(=O)N2C[C@H](Nc3cccc(C4CCNCC4)c3)[C@@H](c3ccccc3)C2)c1` [Example 777, (3R,4S)-1-[(1-methyl-1H-imidazol-4-yl)sulfonyl]-4-phenyl-N-[3-(piperidin-4-yl)phenyl]pyrrolidin-3-amine]: the Ki was at least 10000 nM.

Take `Cn1cnc(S(=O)(=O)N2C[C@H](Nc3cc(OCC4CNC4)ncn3)[C@@H](c3ccc(F)cc3)C2)c1` [Example 778, 6-(azetidin-3-ylmethoxy)-N-{(3R,4S)-4-(4-fluorophenyl)-1-[(1-methyl-1H-imidazol-4-yl)sulfonyl]pyrrolidin-3-yl}pyrimidin-4-amine]: the Ki is at least 10000 nM.

Turning to `Cn1cnc(S(=O)(=O)N2C[C@H](Nc3cc(OCC(F)(F)F)c(Cl)cn3)[C@@H](c3ccccc3)C2)c1` [Example 808, 5-chloro-N-{(3R,4S)-1-[(1-methyl-1H-imidazol-4-yl)sulfonyl]-4-phenylpyrrolidin-3-yl}-4-(2,2,2-trifluoroethoxy)pyridin-2-amine], the Ki is at most 10 nM.

Regarding `Cn1cnc(S(=O)(=O)N2CC(NCc3ccc(C(F)(F)F)cc3Cl)C([C@@H]3CCCO3)C2)c1` (stereo partly drawn) [Example 823, N-[2-chloro-4-(trifluoromethyl)benzyl]-1-[(1-methyl-1H-imidazol-4-yl)sulfonyl]-4-[(2S)tetrahydrofuran-2-yl]pyrrolidin-3-amine], the Ki is at most 1000 nM.

For the compound `Cn1cc(S(=O)(=O)N2C[C@H](Nc3ccc(F)c(OC(F)(F)F)c3)[C@@H](c3ccc(F)cc3)C2)nn1` [Example 838, (3R,4S)-4-(4-fluorophenyl)-N-[4-fluoro-3-(trifluoromethoxy)phenyl]-1-[(1-methyl-1H-1,2,3-triazol-4-yl)sulfonyl]pyrrolidin-3-amine], the Ki was at most 10 nM.

With `Cn1cc(S(=O)(=O)N2C[C@H](Nc3cccc(Cl)c3)[C@@H](c3ccc(F)cc3)C2)nn1` [Example 841, (3R,4S)—N-(3-chlorophenyl)-4-(4-fluorophenyl)-1-[(1-methyl-1H-1,2,3-triazol-4-yl)sulfonyl]pyrrolidin-3-amine], the Ki is at most 10 nM.
